{"source": "patent US20190307754A1", "about": "“PDE9 INHIBITORS FOR TREATMENT OF PERIPHERAL DISEASES” (IMARA, INC., priority 2016, published 2019)", "key": {"[1]": {"assay": "Blood Brain Barrier penetration (brain-to-plasma distribution)", "format": "in vivo", "conditions": "male CD mice, 10 mg/kg subcutaneous", "method": "Male CD mice (20-24 g) were housed pair-wise with free access to food and water for an acclimatization period of 3-7 days before initiation of experiments. Prior to dosing the animals were fasted overnight. During testing, mice were kept in individual cages. The brain-to-plasma distribution was assessed 30 minutes and 2 hours after subcutaneous administration of the test compound at a dose of 10 mg/kg (n=3 at each time point). The dose volume was 10 ml/kg using appropriate vehicle to solubilize each test compound. At the time of sampling, animals were anesthetized with isoflurane and a systemic blood sample collected by cardiac puncture into vacutainers containing sodium heparin as anti-coagulant. The blood was centrifuged at 3500 rpm for 10 minutes at 4° C. to obtain plasma. Following decapitation, brains were dissected out and transferred to pre-weighed vessels followed by tissue weights determination. Plasma and brains were stored at −80° C. until quantitative bioanalysis by LC-MS/MS. Results are expressed as ng/ml for plasma and ng/g for brain samples."}, "[2]": {"tested_on": "C57Bl/6J mice", "assay": "Locomotor activity and contextual fear conditioning in C57Bl/6J mice", "format": "in vivo", "conditions": "10 or 30 mg/kg/day, gavage, 5 days", "method": "(§1) The exposure of both compounds was also evaluated in the plasma, brain, and eye. […] During the treatment period all animals were assessed for contextual fear conditioning and a subset of 7 animals per group was evaluated for locomotor activity. On Day 5, plasma, brain, and eye tissue were collected 30 minutes after dosing from 3 animals per treated group to measure concentrations of test item."}, "[3]": {"assay": "Plasma, brain and eye exposure in C57Bl/6J mice", "format": "in vivo", "conditions": "for concentration at 30 min: male, C57Bl/6J, mouse, plasma, oral, gavage, Day 5, 30 minutes after dosing", "method": "as §1"}, "[4]": {"assay": "Pharmacokinetics of single oral and IV dose in Sprague Dawley rats", "format": "in vivo", "method": "Blood samples were taken at 2 minutes (IV only), then 8, 15, 30 minutes, and 1, 2, 4, 8, and 24 hours after dosing and analyzed for key PK parameters. In the rats, brain samples were taken at 24 hours and analyzed for Compound P3.1. To evaluate the penetration of Compound P3.1 across the blood-brain barrier (BBB), 10 additional rats received IV Compound P3.1 3 mg/kg and plasma and brain concentrations of Compound P3.1 were determined from 2 animals at 15 minutes, 30 minutes and 1, 2, and 4 hours after dosing."}, "[5]": {"tested_on": "CYP1A2", "assay": "CYP induction in human hepatocytes, CYP1A2", "format": "in vitro ADME"}, "[6]": {"tested_on": "CYP3A4", "assay": "CYP induction, CYP3A4", "format": "in vitro ADME"}, "[7]": {"assay": "Metabolic stability (intrinsic clearance) in liver microsomes", "format": "in vitro ADME, mouse, rat, dog, monkey, and human"}, "[8]": {"assay": "Chromosome aberration study", "format": "cell-based", "source_text": "The genotoxicity evaluation of Compound P3.1 consisted of a bacterial reverse mutation assay, a chromosome aberration study, and a in vivo rat micronucleus study. Compound P3.1 was negative in all 3 assays."}, "[9]": {"assay": "Stability study in purified water", "format": "physicochemical", "conditions": "approximately 40 mg/mL in purified water, refrigerated and ambient, 8 days", "method": "In another stability study, Compound P3.1 was dissolved at approximately 40 mg/mL of purified water, and evaluated for purity over a period of 8 days. Samples were stored at both refrigerated and ambient conditions, and tested at T=0, Day 2, and Day 8."}, "[10]": {"tested_on": "TNF-α activated human endothelial cells", "assay": "Micro-channel PMN adhesion assay under flow (FIG. 9)", "format": "cell-based", "source_text": "In this study, the effects of Compound P3.1 on PMN adhesion to TNF-α activated human endothelial cell monolayers under flow conditions are investigated. It has been validated in vitro dynamic assay mimics neutrophil recruitment to endothelial cell monolayers under inflammatory conditions (TNF-α activation). In this assay, both control and sickle PMNs adhere to endothelial cells but to different degrees, reflecting in vivo conditions. The human dermal microvascular endothelial cell line HMEC-1 is used in this approach. The potential inhibitory effect of Compound P3.1 is tested in parallel and compared with the effect of HU and other PDE9 inhibitors.\nIn a first step, the effects of 1 uM Compound P3.1 and 10 uM HU were tested by incubating blood samples from healthy volunteers (n=3-6) (i.e., donors or donor cells) with these molecules.\nAdhesion of PMNs from healthy volunteers was assessed under flow conditions, mimicking blood flow, in micro channels (Venaflux, Cellix, Ireland) coated with endothelial cell monolayers cultivated under inflammatory conditions. The adhesion assay was performed with whole fresh blood, previously incubated or not with Compound P3.1, to be closer to the physiological condition of circulation in a person, and to study the interaction between the different blood cells with PMNs."}, "[11]": {"tested_on": "TNF-α activated endothelium", "assay": "Micro-channel assay of platelet, PMN and RBC binding (FIG. 10)", "format": "cell-based, human", "conditions": "bound cells at 30 min", "method": "In another assay, using the same method, the reduction of PMN and RBC bindings to TNF-α activated endothelium in a micro channel well was confirmed. Platelet, PMN, and RBC in blood samples from 5 healthy normal volunteers (donors) were labelled with fluorescent dyes. The blood samples were incubated with Compound P3.1 for 2 hours or 3 hours, or HU for 3 hours, prior to running them on micro channels that were previously coated with endothelial cells activated with TNF-α. The % of bound cells was quantified at 30 min. Results are shown in FIG. 10A, FIG. 10B, and FIG. 10C."}, "[12]": {"tested_on": "7 key CYP enzyme isoforms", "assay": "CYP enzyme inhibition in human liver microsomes", "conditions": "up through 100 μM"}, "[13]": {"conditions": "Sprague Dawley rats, 10 mg/kg oral"}, "[14]": {"conditions": "rat, blood, Sprague Dawley rats, 3 mg/kg IV"}, "[15]": {"conditions": "rat, blood, Sprague Dawley rats, 10 mg/kg oral"}}, "data": [{"smiles": "C[C@@H]1CN(Cc2ncccn2)C[C@H]1c1cn2c(C3CCOCC3)ncc2c(=O)[nH]1", "note": "(single isomer, unassigned) [Compound P3.1]", "values": [{"measurement": "Plasma concentration after 30 minutes", "setting": "[1]; 30 min", "result": "30 min.: 1620 ng/mL"}, {"measurement": "Plasma concentration after 120 minutes", "setting": "[1]; 120 min", "result": "120 min.: 226 ng/mL"}, {"measurement": "Kp at 0.5 h", "setting": "[1]; mouse, brain, sc, 30 min, read-out: Brain/Plasma ratio after 30 minutes", "result": 0.04}, {"measurement": "Kp at 2 h", "setting": "[1]; mouse, brain/plasma, sc, 120 min, read-out: Brain/Plasma ratio after 120 minutes", "result": 0.03}, {"measurement": "locomotor activity or memory", "setting": "[2]", "result": "no effect"}, {"measurement": "eye tissue level relative to AF27873", "setting": "[3]; 10 and 30 mg/kg/day", "result": 3, "unit": "fold lower"}, {"measurement": "concentration at 30 min", "setting": "[3]; 10 mg/kg/day", "result": 3.84, "unit": "µM"}, {"measurement": "concentration at 30 min", "setting": "[3]; 30 mg/kg/day", "result": 9.91, "unit": "µM"}, {"measurement": "plasma to brain ratio", "setting": "[3]; repeated administration", "result": "approximately 14"}, {"measurement": "Cl_obs", "setting": "[4]; Sprague Dawley rats, 3 mg/kg IV", "result": 16.2, "unit": "mL/min/kg"}, {"measurement": "Flast", "setting": "[4]; [13]", "result": 44.6, "unit": "%"}, {"measurement": "Vss obs", "setting": "[4]; [13]", "result": 44.6, "unit": "L/kg"}, {"measurement": "bioavailability", "setting": "[4]; Sprague Dawley, rat, plasma, po, 10 mg/kg, read-out: oral bioavailability Flast", "result": 63.4, "unit": "%"}, {"measurement": "AUC(0-t)", "setting": "[4]; [14]", "result": 3110, "unit": "ng·h/mL"}, {"measurement": "C0", "setting": "[4]; [14]", "result": 4820, "unit": "ng/mL"}, {"measurement": "MRT", "setting": "[4]; [14]", "result": 1.44, "unit": "h"}, {"measurement": "half-life", "setting": "[4]; [14]", "result": 169, "unit": "min"}, {"measurement": "Vd", "setting": "[4]; rat, blood, Sprague Dawley rats, 3 mg/kg IV, read-out: Vss obs", "result": 1.65, "unit": "L/kg"}, {"measurement": "AUC(0-t)", "setting": "[4]; [15]", "result": 4620, "unit": "ng·h/mL"}, {"measurement": "C0", "setting": "[4]; [15]", "result": 1110, "unit": "ng/mL"}, {"measurement": "Tmax", "setting": "[4]; [15]", "result": 1, "unit": "h"}, {"measurement": "half-life", "setting": "[4]; [15]", "result": 181, "unit": "min"}, {"measurement": "continuously exposed out to", "setting": "[4]; rats, 10 mg/kg oral", "result": 8, "unit": "h"}, {"measurement": "induction of CYP1A2", "setting": "[5]", "result": "no potential for induction"}, {"measurement": "induction of CYP3A4", "setting": "[6]", "result": "potential for induction"}, {"measurement": "metabolic stability", "setting": "[7]; mouse, rat, dog, monkey, and human liver microsomes", "result": "highly stable"}, {"measurement": "intrinsic clearance in liver microsomes", "setting": "[7]; presence or absence of NADPH", "result": "minimal intrinsic clearance"}, {"measurement": "genotoxicity, chromosome aberration study", "setting": "[8]", "result": "negative"}, {"measurement": "stability: purity and appearance of solution", "setting": "[9]", "result": "No significant change to the purity of the compound or appearance of the solution"}, {"measurement": "adhesion of low-binding donor cells", "setting": "[10]; 1 uM Compound P3.1, whole blood of healthy volunteers", "result": "no effect"}, {"measurement": "adhesion of high-binding donor cells", "setting": "[10]; 1 uM Compound P3.1 or 10 uM HU, whole blood of healthy volunteers", "result": "reduced the adhesion of 3 of 4 high-binding donors"}, {"measurement": "platelet binding", "setting": "[11]; Compound P3.1 2 or 3 hours, HU 3 hours", "result": "did not impact platelet binding"}, {"measurement": "PMN adhesion to endothelial cells", "setting": "[11]; blood incubated 2 or 3 hours", "result": "reduced"}, {"measurement": "RBC adhesion to endothelial cells", "setting": "[11]; blood incubated 2 or 3 hours", "result": "reduced"}, {"measurement": "direct inhibition of 7 key CYP enzyme isoforms", "setting": "[12]", "result": "no potential for direct inhibition"}]}]}
